According to PubChem BioAssay (NCI):
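Following 48 hours of exposure in 96-well plates, responses at five concentrations were used to interpolate endpoints linearly. The concentration for full growth arrest is given as TGI.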

Assays:
Assay in all cases: growth of human tumour cells (NCI), 48 h
SR leukemia = tested on: SR leukemia
HT29 colon = tested on: HT29 colon
ACHN renal = tested on: ACHN renal
MDA-MB-435 = tested on: MDA-MB-435
NCI-H23 lung = tested on: NCI-H23 lung
CCRF-CEM leukemia = tested on: CCRF-CEM leukemia
PC-3 prostate = tested on: PC-3 prostate
SF-295 CNS = tested on: SF-295 CNS
EKVX NSCLC = tested on: EKVX NSCLC
786-0 renal = tested on: 786-0 renal
SK-MEL-28 melanoma = tested on: SK-MEL-28 melanoma
NCI-H460 lung = tested on: NCI-H460 lung
OVCAR-5 ovarian = tested on: OVCAR-5 ovarian
MCF7 breast = tested on: MCF7 breast
UACC-62 melanoma = tested on: UACC-62 melanoma
IGROV1 ovarian = tested on: IGROV1 ovarian
U251 CNS = tested on: U251 CNS
SF-268 CNS = tested on: SF-268 CNS
SF-539 CNS = tested on: SF-539 CNS
NCI-H522 lung = tested on: NCI-H522 lung
LOX IMVI melanoma = tested on: LOX IMVI melanoma
TK-10 renal = tested on: TK-10 renal
HCC-2998 colon = tested on: HCC-2998 colon
A498 renal = tested on: A498 renal
UACC-257 melanoma = tested on: UACC-257 melanoma
MDA-MB-231 breast = tested on: MDA-MB-231 breast
UO-31 renal = tested on: UO-31 renal
HOP-62 NSCLC = tested on: HOP-62 NSCLC
OVCAR-8 ovarian = tested on: OVCAR-8 ovarian
MOLT-4 leukemia = tested on: MOLT-4 leukemia
MDA-N = tested on: MDA-N
T-47D breast = tested on: T-47D breast
KM12 colon = tested on: KM12 colon
HL-60(TB) leukemia = tested on: HL-60(TB) leukemia
CAKI-1 renal = tested on: CAKI-1 renal
HCT-116 colon = tested on: HCT-116 colon
K-562 leukemia = tested on: K-562 leukemia
RPMI-8226 leukemia = tested on: RPMI-8226 leukemia
HCT-15 colon = tested on: HCT-15 colon
DU-145 prostate = tested on: DU-145 prostate
RXF 393 renal = tested on: RXF 393 renal
SN12C renal = tested on: SN12C renal
M14 melanoma = tested on: M14 melanoma
A549 NSCLC = tested on: A549 NSCLC
SK-OV-3 ovarian = tested on: SK-OV-3 ovarian
MALME-3M melanoma = tested on: MALME-3M melanoma
HOP-92 NSCLC = tested on: HOP-92 NSCLC
OVCAR-4 ovarian = tested on: OVCAR-4 ovarian
COLO 205 colon = tested on: COLO 205 colon
NCI-H226 lung = tested on: NCI-H226 lung
HS 578T breast = tested on: HS 578T breast
SNB-19 CNS = tested on: SNB-19 CNS
NCI/ADR-RES ovarian = tested on: NCI/ADR-RES ovarian
SK-MEL-2 melanoma = tested on: SK-MEL-2 melanoma
SK-MEL-5 melanoma = tested on: SK-MEL-5 melanoma
OVCAR-3 ovarian = tested on: OVCAR-3 ovarian

CC(=O)O[C@@H]1C(=O)N(c2ccccc2)[C@@H]1c1cc2ccccc2c2ccccc12
TGI (SR leukemia): 52.9 µM
TGI (HT29 colon): > 100 µM
TGI (ACHN renal): > 100 µM
TGI (MDA-MB-435): 48.1 µM
TGI (NCI-H23 lung): > 100 µM
TGI (CCRF-CEM leukemia): > 100 µM
TGI (PC-3 prostate): > 100 µM
TGI (SF-295 CNS): > 100 µM
TGI (EKVX NSCLC): > 100 µM
TGI (786-0 renal): > 100 µM
TGI (SK-MEL-28 melanoma): > 100 µM
TGI (NCI-H460 lung): > 100 µM
TGI (OVCAR-5 ovarian): > 100 µM
TGI (MCF7 breast): > 100 µM
TGI (UACC-62 melanoma): > 100 µM
TGI (IGROV1 ovarian): 61.9 µM
TGI (U251 CNS): > 100 µM
TGI (SF-268 CNS): > 100 µM
TGI (SF-539 CNS): 96.9 µM
TGI (NCI-H522 lung): 11.2 µM
TGI (LOX IMVI melanoma): 64.3 µM
TGI (TK-10 renal): > 100 µM
TGI (HCC-2998 colon): 61.2 µM
TGI (A498 renal): > 100 µM
TGI (UACC-257 melanoma): > 100 µM
TGI (MDA-MB-231 breast): 75.1 µM
TGI (UO-31 renal): 87 µM
TGI (HOP-62 NSCLC): > 100 µM
TGI (OVCAR-8 ovarian): > 100 µM
TGI (MOLT-4 leukemia): 56 µM
TGI (MDA-N): > 100 µM
TGI (T-47D breast): 85.7 µM
TGI (KM12 colon): > 100 µM
TGI (HL-60(TB) leukemia): 58.2 µM
TGI (CAKI-1 renal): 36.8 µM
TGI (HCT-116 colon): 91 µM
TGI (K-562 leukemia): > 100 µM
TGI (RPMI-8226 leukemia): 82.6 µM
TGI (HCT-15 colon): > 100 µM
TGI (DU-145 prostate): > 100 µM
TGI (RXF 393 renal): 62.6 µM
TGI (SN12C renal): > 100 µM
TGI (M14 melanoma): > 100 µM
TGI (A549 NSCLC): > 100 µM
TGI (SK-OV-3 ovarian): > 100 µM
TGI (MALME-3M melanoma): 88.9 µM
TGI (HOP-92 NSCLC): > 100 µM
TGI (OVCAR-4 ovarian): 78.5 µM
TGI (COLO 205 colon): 32.3 µM
TGI (NCI-H226 lung): > 100 µM
TGI (HS 578T breast): > 100 µM
TGI (SNB-19 CNS): > 100 µM
TGI (NCI/ADR-RES ovarian): > 100 µM
TGI (SK-MEL-2 melanoma): 40.6 µM
TGI (SK-MEL-5 melanoma): 59.4 µM
TGI (OVCAR-3 ovarian): 83.4 µM
